{"source": "patent US9622988B2", "about": "“Small molecule xanthine oxidase inhibitors and methods of use” (Baylor College of Medicine, priority 2012, dated 2017)", "key": {"XO": {"target": "T1, XO (Bos taurus, UniProt P80457)", "T1 construct": "Xanthine oxidase from bovine milk; purchased Sigma Chemical Co. (St. Louis, Mo.); host or cells: bovine milk (natural source)", "T1 sequence (P80457 whole entry)": "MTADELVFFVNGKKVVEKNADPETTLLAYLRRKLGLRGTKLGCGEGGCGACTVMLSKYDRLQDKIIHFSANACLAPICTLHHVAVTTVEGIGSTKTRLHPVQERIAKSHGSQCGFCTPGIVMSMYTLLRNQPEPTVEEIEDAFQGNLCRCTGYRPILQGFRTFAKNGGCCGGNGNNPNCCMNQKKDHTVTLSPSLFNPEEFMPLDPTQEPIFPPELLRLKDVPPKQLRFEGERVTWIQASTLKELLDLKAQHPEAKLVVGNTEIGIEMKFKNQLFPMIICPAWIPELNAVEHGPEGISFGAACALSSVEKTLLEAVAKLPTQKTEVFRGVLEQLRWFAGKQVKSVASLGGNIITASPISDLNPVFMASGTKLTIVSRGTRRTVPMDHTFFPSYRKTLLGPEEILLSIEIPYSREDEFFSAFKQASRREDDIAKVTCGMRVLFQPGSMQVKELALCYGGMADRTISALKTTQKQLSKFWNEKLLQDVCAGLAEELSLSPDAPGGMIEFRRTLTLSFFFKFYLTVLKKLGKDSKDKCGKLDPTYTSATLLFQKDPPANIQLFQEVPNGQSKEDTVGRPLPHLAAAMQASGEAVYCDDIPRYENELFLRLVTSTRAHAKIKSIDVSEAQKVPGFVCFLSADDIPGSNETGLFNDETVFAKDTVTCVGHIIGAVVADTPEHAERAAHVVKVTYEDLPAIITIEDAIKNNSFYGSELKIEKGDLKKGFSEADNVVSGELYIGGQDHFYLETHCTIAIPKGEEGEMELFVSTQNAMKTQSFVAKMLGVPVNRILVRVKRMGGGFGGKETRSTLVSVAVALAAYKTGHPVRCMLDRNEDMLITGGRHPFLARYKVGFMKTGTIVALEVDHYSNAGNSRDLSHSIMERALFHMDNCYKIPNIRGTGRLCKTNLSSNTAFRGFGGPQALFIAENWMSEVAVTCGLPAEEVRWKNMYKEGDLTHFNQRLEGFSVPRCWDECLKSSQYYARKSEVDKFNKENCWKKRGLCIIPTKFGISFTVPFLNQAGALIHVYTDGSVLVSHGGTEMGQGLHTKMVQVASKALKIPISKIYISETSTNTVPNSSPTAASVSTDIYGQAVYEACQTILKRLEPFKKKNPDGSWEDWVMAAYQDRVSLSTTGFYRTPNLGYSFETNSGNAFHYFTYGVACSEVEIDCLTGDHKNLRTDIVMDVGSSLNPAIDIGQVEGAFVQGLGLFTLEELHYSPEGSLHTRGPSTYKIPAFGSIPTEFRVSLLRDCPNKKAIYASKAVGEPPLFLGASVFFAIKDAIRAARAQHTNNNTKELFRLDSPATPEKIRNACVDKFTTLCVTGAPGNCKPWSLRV", "assay": "Conversion of DHNB to products by XO", "format": "biochemical, bovine", "settings": "room temperature"}, "[1]": {"assay": "Peroxynitrite scavenging assay", "settings": "20 μM (FIG. 7C)", "protocol": "Peroxynitrite Scavenging Assay—Peroxynitrite (ONOO^−) was generated by mixing 5 mL acidic solution (0.6 M HCl) of H2O2 (0.7 M) and 5 mL of 0.6 M KNO2 in an ice bath for 1 second and the reaction was quenched with 5 mL of ice-cold 1.2 M NaOH. Residual H2O2 was removed using granular MnO2 prewashed with 1.2 M NaOH and the reaction mixture was then left overnight at −20° C. Concentrations of ONOO^− were determined before each experiment at 302 nm using a molar extinction coefficient of 1,670 M^−1 cm^−1. The final concentrations of reagents used in the assay are as follows: 25 μM ONOO^−, 10 μM DTPA, 5 μM DHR 123, 0.1 M phosphate buffer, pH 7.4. The ONOO^− scavenging assay was performed by monitoring the oxidation of dihydrorhodamine (DHR 123) by ONOO^− spectrophotometrically at 500 nm."}, "[2]": {"target": "Xanthine oxidase from bovine milk (Bos taurus, UniProt P80457)", "sequence (P80457 whole entry)": "as above", "settings": "for inhibition of XO: each compound at 20 μM (FIG. 2); for time course of inhibition of XO activity: 20 nM XO added to 50 μM xanthine and 6.67 μM inhibitor (FIG. 3)"}, "[3]": {"tested_on": "allantoxanamide induced hyperuricemic mice", "assay": "Hypouricemic effect in allantoxanamide induced hyperuricemic mice", "format": "in vivo, C57BL/6 mice", "settings": "100 mg/kg oral before 200 mg/kg allantoxanamide i.p., up to 4 hours (FIG. 13)", "protocol": "A hyperuricemia mouse model was used. Allantoxanamide, a potent uricase inhibitor, was used to induce hyperuricemia in mice in this study. […] The mice were subsequently intraperitoneally injected with allantoxanamide at 200 mg/kg in 0.5% CMC-Na in a volume of 0.1 ml/10 g mouse body weight just after the tested drug oral administration to increase the serum uric acid level. […] The negative control mice were administered PEG400 only followed by i.p. allantoxanamide. The normal group mice were administered PEG400 only followed by i.p. CMC-Na only. Food and water were withheld overnight prior to the study. Whole blood samples were collected from mice through orbital vein bleeding at the end of the study. The mice were anaesthetized with diethyl ether inside a chamber. The blood was allowed to clot for 1 h at room temperature and then centrifuged at 2350×g for 4 min to obtain the serum. The serum was kept on ice and assayed immediately. Serum uric acid was determined with the phosphotungstate method, as known to those of skill in the art."}, "[4]": {"assay": "Superoxide scavenging assay (xanthine-xanthine oxidase system, NBT)", "settings": "20 μM (FIG. 7D)", "protocol": "Superoxide Scavenging Assay—Superoxide (O2^−.) scavenging activity was assayed in the xanthine-xanthine oxidase system and determined by the inhibition of the reduction of nitro blue tetrazolium (NBT) to form blue formazan which has an absorption at 560 nm. The final concentrations of reagents used in the assay are as follows: 16.8 mU xanthine oxidase, 25 μM xanthine, 50 μM NBT, and 0.1 M phosphate buffer (pH 8.5). […] The abilities of polyphenols to scavenge O2^−. were compared with that of GSH."}, "[5]": {"assay": "Antioxidant activity of polyphenols (summary)", "settings": "FIG. 7"}}, "data": [{"smiles": "O=C(O)c1cc(O)c(O)c([N+](=O)[O-])c1", "note": "[3,4-dihydroxy-5-nitrobenzoic acid]", "values": [{"measurement": "inhibitory effect of the DHNB/XO product on XO", "setting": "XO", "value": "no inhibitory effect on XO"}]}, {"smiles": "O=Cc1cc(O)c(O)cc1[N+](=O)[O-]", "note": "[DH6NB, 3,4-Dihydroxy-6-nitrobenzaldehyde]", "values": [{"measurement": "ONOO^− scavenging effect", "setting": "[1]", "value": "strong scavenging effect"}, {"measurement": "inhibition of XO", "setting": "[2]", "value": "inhibitory effects on XO"}]}, {"smiles": "O=Cc1ccc(O)c(O)c1", "note": "[DHB-CHO, 3,4-dihydroxybenzaldehyde]", "values": [{"measurement": "ONOO^− scavenging effect", "setting": "[1]", "value": "strong scavenging effect"}, {"measurement": "inhibition of XO", "setting": "[2]", "value": "inhibitory effects on XO"}]}, {"smiles": "O=C(O)c1ccc(O)c(O)c1", "note": "[DHB-COOH, 3,4-dihydroxybenzoic acid, reference compound]", "values": [{"measurement": "inhibition of XO", "setting": "[2]", "value": "no effect on XO"}]}, {"smiles": "O=Cc1cc(O)c(O)c([N+](=O)[O-])c1", "note": "[DHNB, 3,4-Dihydroxy-5-nitrobenzaldehyde]", "values": [{"measurement": "ONOO^− scavenging effect", "setting": "[1]", "value": "strong scavenging effect"}, {"measurement": "serum urate levels (hypouricemic effect)", "setting": "[3]", "value": "significantly lowered in 2 hours and maintained at a level just slightly higher than the normal level in 4 hours"}, {"measurement": "histology analysis for the liver, kidney, and heart vs control mice", "setting": "C57BL/6 mice; mouse, in vivo", "value": "did not show any difference"}, {"measurement": "time course of inhibition of XO activity", "setting": "[2]", "value": "time-dependent inhibition"}, {"measurement": "XO inhibition after treatment with reducing agents", "setting": "[2]; 20 μM DHNB, then GSH, DTT or 2-ME 20 mM (FIG. 5)", "value": "did not abolish the inhibition"}, {"measurement": "initial rates with increasing xanthine concentrations (Dixon plot)", "setting": "[2]; DHNB concentration fixed, 1 min pre-incubation (FIG. 1B)", "value": "did not change with increasing xanthine concentrations"}, {"measurement": "inhibition of XO", "setting": "[2]", "value": "inhibitory effects on XO"}]}, {"smiles": "COc1ccc(CO)cc1OC", "note": "[DMB-CH2OH, 3,4-dimethoxybenzyl alcohol, reference compound]", "values": [{"measurement": "inhibition of XO", "setting": "[2]", "value": "no effect on XO"}]}, {"smiles": "O.O=Cc1cc(O)c(O)c(O)c1", "note": "[THB-CHO, 3,4,5-trihydroxybenzaldehyde hydrate]", "values": [{"measurement": "ONOO^− scavenging effect", "setting": "[1]", "value": "strong scavenging effect"}, {"measurement": "superoxide scavenging effect", "setting": "[4]", "value": "strong scavenging effects on superoxide"}, {"measurement": "IC50 of XO activity inhibition", "setting": "[2]; 20 nM XO, 50 μM xanthine, phosphate buffer pH 7.4, 25° C.", "value": "too high to determine"}, {"measurement": "inhibition of XO", "setting": "[2]", "value": "inhibitory effects on XO"}]}, {"smiles": "COc1cc(C=O)ccc1O", "note": "[Vanillin, reference compound]", "values": [{"measurement": "inhibition of XO", "setting": "[2]", "value": "no inhibition on XO activity"}]}, {"smiles": "Oc1ncnc2[nH]ncc12", "note": "[allopurinol, reference compound]", "values": [{"measurement": "serum urate levels (hypouricemic effect)", "setting": "[3]", "value": "significantly lowered the serum urate level close to the normal level"}, {"measurement": "pups died in two days", "setting": "C57BL/6 mice; 500 mg/kg, total 19 pups of surviving mice", "value": "eight"}, {"measurement": "antioxidant activity (scavenging of DPPH, ONOO^−, HOCl, superoxide ion)", "setting": "[5]", "value": "does not possess the antioxidant properties"}, {"measurement": "time course of inhibition of XO activity", "setting": "[2]", "value": "time-dependent inhibition"}]}, {"smiles": "O=C(O)/C=C/c1ccc(O)c(O)c1", "note": "[caffeic acid, reference compound]", "values": [{"measurement": "ONOO^− scavenging effect", "setting": "[1]", "value": "strong scavenging effect"}, {"measurement": "inhibition of XO", "setting": "[2]", "value": "no effect on XO"}]}, {"smiles": "O=C(O)c1cc(O)c(O)c(O)c1", "note": "[gallic acid, reference compound]", "values": [{"measurement": "ONOO^− scavenging effect", "setting": "[1]", "value": "strong scavenging effect"}, {"measurement": "inhibition of XO", "setting": "[2]", "value": "no effect on XO"}]}]}
